The values below are quoted from earlier work in US12064376B2, “Rho kinase inhibitor releasing implants and related methods of use” (priority 2020, dated 2024).

Series [1] deals with Porcine corneal endothelial cells (CECs). Particulars: 10 μM Y-27632 or 2.5 μM H-1152, 2, 24 and 48 hours.
Series [2] deals with rabbit model of corneal endothelial dysfunction. Particulars: 1 mM topical, 2 drops QID three days then TID seven days.
For series [3], the system named is monkey model of corneal endothelial cell damage.
Series [4] concerns Fuch's corneal dystrophy.
In series [5] the test system is bullous keratopathy.
Series [6] concerns rabbit corneal endothelial damage model. The settings on record: scrape model.
Series [7] relates to failed descemetorhexis. Particulars: patient with failed descemetorhexis.
The test system of series [8] is human corneal endothelial cells (HCEC). Particulars: ripasudil 0.3 to 30 μM, 48 hours, HCEC in vitro.
The subject of series [9] is rabbit corneal endothelial damage model. The settings on record: freeze model, topical 0.4% or 0.8% drops BID or QID.
[10] abbreviates: at 1 year, MCEC and ROCK inhibitor eyes.
[11] abbreviates: by 24 weeks, eleven patients, 1×10^6 human CECs per 300 μL with Y-27632.

SMILES strings stand for the structures.

As for `Cc1cncc2cccc(S(=O)(=O)N3CCCNC[C@@H]3C)c12` [H-1152], in [1], the cell morphology entry is “monolayer with polygonal structure and tight junctions”; the “migration of cells from the scratch” value is listed as “enhanced”. In series [2], the “corneal thickness versus controls” value is recorded as “less”.

For `C[C@@H](N)[C@H]1CC[C@H](C(=O)Nc2ccncc2)CC1` [Y-27632], in [3] (5×10^5 CECs in 200 μl with ROCK inhibitor, intracameral), the “survival and engraftment of injected cultured endothelial cells” value is on record as “enhanced”. For the same molecule, in series [3] (MCEC with concomitant ROCK inhibitor, intracameral injection), the adverse events entry was “without adverse events such as glaucoma”. For the same molecule, in [3] (setting [10]), the corneal clarity entry was “clear corneas” and the “corneal endothelial cell density” value is on record as 2000 cells/mm^2. In addition, in series [4] (Fuch's corneal dystrophy, eye drop), the preserving corneal clarity entry was “effective”. Besides, the corneal thickening entry in [4] (Fuch's patients) was “decrease”. The “efficacy by severity of corneal endothelial dysfunction” value in [4] (mild (central edema) versus severe (diffuse edema)) was “effective in mild cases (central edema) of corneal endothelial dysfunction, but not severe (diffuse edema)”. In addition, in [1], the cell morphology entry was “monolayer with polygonal structure and tight junctions”; the “migration of cells from the scratch” value is on record as “enhanced”. In series [5] (setting [11]), the “number of patients with >500 cells/mm^2” value is recorded as 11 and the “number of patients with >1000 cells/mm^2” value is 10. The adverse events entry in series [5] (eleven patients) is “One case of steroid induced intraocular pressure (IOP) and no other adverse events”. For the same molecule, in series [5] (in all but 1 case, corneas became clear), the corneal thickness was less than 630 μm.

Turning to `C[C@H]1CNCCCN1S(=O)(=O)c1cccc2cncc(F)c12` [ripasudil], the treated eyes clear in series [6] (day 14, control 0/6) is given as 5/6. Moreover, the corneal thickening entry in [6] (no change with control) was “⅓”. The “outcome of case study” value in series [7] was “salvaged patient”. Also, the “DNA and endothelial cell proliferation” value in [8] is given as “significantly enhanced”. In addition, in series [9], the “corneal haze versus controls” value is “less hazy corneas”, the “proliferation in treated eyes” value is “better in the ROCK inhibitor treated eyes in a dose dependent fashion” and the “wound size versus controls” value is on record as “smaller”.
